How the values were obtained:
[1] = test system: Mouse Ischemia and Reperfusion Model; assay: Mouse ischemia and reperfusion model, infarct size; type: in vivo; details: mice; 30 min CAO, 24 hr CAR; i.v. infusion 0.06 mg/kg delivered at CAR; vehicle 33%
Protocol: 3-4-month-old male CS7BL/6 mice purchased from Jack-son Laboratory were anesthetized by an injection of 2% 2,2,2-tribromomethanol ([…] i.p.; Aldrich Chemical, St. Louis, Mo.). The mice were then orally intubated and mechanically ventilated. The heart was accessed via a thoracotomy at the fourth intercostals space and 7-0 silk suture passed under the left anterior descending coronary artery (LAD) at the point where it emerged from under the left atrial flap. Myocardial ischemia was achieved by occluding the LAD against a 22-gauge J-shaped stainless-steel probe and verified by visually noting the regional akinesis and blanching of the left ventricle. The chest was closed in layers, with the long end of the probe remaining outside the chest wall, allowing the animals to be removed from the ventilator. After 30 min. of ischemia, reperfusion was initiated by carefully pulling the probe out from the ligature and then removing it from the chest cavity. Following the surgical procedure, the mice were allowed to recover on a warmed surface, with supplemental oxygen delivered from a nose cone. I/R were verified by three lead electrocardiograms, which were obtained preoperatively, at the end of the ischemic interval and immediately after the initiation of reperfusion. Mice fully recovered from the surgical procedure were returned to standard animal housing conditions. […]

type V adenylyl cyclase = biological target: T1, type V adenylyl cyclase (Homo sapiens, UniProt O95622); assay: Adenylyl cyclase membrane assay, type V (cAMP ELISA); type: biochemical, mouse; details: cardiomyocyte membrane preparations from transgenic mice; forskolin 50 μM
T1 construct: from tissue; host or cells: heart (cardiomyocyte) membrane preparations from transgenic mice overproducing type V adenylyl cyclase
Protocol: (§1) Compounds were assayed for their ability to attenuate cyclic AMP (cAMP) production in cardiomyocyte membrane preparations isolated from transgenic mice. Transgenic mice were separately bred to overproduce type V adenylyl cyclase, type VI adenylyl cyclase and type II adenylyl cyclase. cAMP levels were determined using a Cyclic AMP Competitive ELISA kit purchased from ThermoFischer Scientific (Cat# EMSCAMPL).
(§2) Buffer A (pH 8) was prepared comprising final concentrations of the following: 50 mM Tris, 1 mM EGTA, 1 mM EDTA, 1 mM DTT, 100 mM sucrose, 20 μg/mL TPCK (protease inhibitor), 20 μg/mL TLCK (protease inhibitor), 1 mM PMSF (protease inhibitor), 10 μg/mL leupeptin (protease inhibitor) and 10 μg/mL aprotinin (protease inhibitor).
(§3) Buffer B (pH 8) was prepared comprising final concentrations of the following: 50 mM Tris, 1 mM EDTA, 100 mM sucrose, 0.2 mM PMSF (protease inhibitor), 2 μg/mL leupeptin (protease inhibitor) and 2 μg/mL aprotinin (protease inhibitor).
Hearts were surgically excised from transgenic mice. Each isolated heart was treated with 3-4 mL of buffer A and cooled to 0 deg C. for 5 minutes. Treated hearts were homogenized for 10 seconds using a Polytron homogenizer cooled to 0 deg C. and set to speed 6. Homogenized hearts were centrifuged at 500×g at 4 deg C. for 10 minutes. Supernatants were transferred to ultracentrifuge tubes and centrifuged at 35,000 rpm at 4 deg C. for 40 minutes. Isolated pellets were combined with buffer B (500 μL) and sonicated to a suspension. Protein concentration was determined using a commercial Bradford assay kit. Membrane preparations were stored at −80 deg C.
Buffer R (pH 8) was prepared comprising final concentrations in water of the following: HEPES (20 mM), magnesium chloride (5 mM), EDTA (0.5 mM), ATP (0.1 mM), phospho creatinine (1 mM), creatinine phosphokinase (8 units/mL), IBMX (200 μM), forskolin (50 μM) or control (DMSO in water).
Inhibitor solutions were prepared by dilution of stock solutions of inhibitors (10 mM in DMSO) to a final concentration of 100 μM in water. Serial dilutions with water were subsequently made in order to determine IC50 values.
Reaction mixtures were prepared comprising buffer R (10 μL), inhibitor or control (10 μL), and water (75 μL).
A reaction mixture was pre-incubated at 30 deg C. for 5 minutes. A membrane preparation (e.g. 5 μL for type V Adenylyl Cyclase comprising 2 μg of membrane protein per 5 μL of preparation) was added and the mixture was incubated at 30 deg C. for 15 minutes. The reaction was stopped by addition of 0.1 M hydrochloric acid (100 μL) and cooled to 0 deg C. The resulting mixture was incubated at 0 deg C. for 60 minutes. The cAMP concentration of the supernatant was measured using a Cyclic AMP Competitive ELISA kit purchased from ThermoFischer Scientific.

type VI adenylyl cyclase = biological target: T2, type VI adenylyl cyclase (Homo sapiens, UniProt O43306); assay: Adenylyl cyclase membrane assay, type VI (cAMP ELISA); type: biochemical, mouse; details: cardiomyocyte membrane preparations from transgenic mice; forskolin 50 μM
T2 construct: from tissue; host or cells: heart (cardiomyocyte) membrane preparations from transgenic mice overproducing type VI adenylyl cyclase
Protocol: as §1, §2, §3
Hearts were surgically excised from transgenic mice. Each isolated heart was treated with 3-4 mL of buffer A and cooled to 0 deg C. for 5 minutes. Treated hearts were homogenized for 10 seconds using a Polytron homogenizer cooled to 0 deg C. and set to speed 6. Homogenized hearts were centrifuged at 500×g at 4 deg C. for 10 minutes. Supernatants were transferred to ultracentrifuge tubes and centrifuged at 35,000 rpm at 4 deg C. for 40 minutes. Isolated pellets were combined with buffer B (500 μL) and sonicated to a suspension. Protein concentration was determined using a commercial Bradford assay kit. Membrane preparations were stored at −80 deg C. […]
(§4) A reaction mixture was pre-incubated at 30 deg C. for 5 minutes. […] The cAMP concentration of the supernatant was measured using a Cyclic AMP Competitive ELISA kit purchased from ThermoFischer Scientific.

type II adenylyl cyclase = biological target: T3, type II adenylyl cyclase (Homo sapiens, UniProt Q08462); assay: Adenylyl cyclase membrane assay, type II (cAMP ELISA); type: biochemical, mouse; details: cardiomyocyte membrane preparations from transgenic mice; forskolin 50 μM
T3 construct: from tissue; host or cells: heart (cardiomyocyte) membrane preparations from transgenic mice overproducing type II adenylyl cyclase
Protocol: as §1, §2, §3
Hearts were surgically excised from transgenic mice. Each isolated heart was treated with 3-4 mL of buffer A and cooled to 0 deg C. for 5 minutes. […] Protein concentration was determined using a commercial Bradford assay kit. […]
as §4

[2] = test system: H9c2(2-1) myoblast cell line; assay: Adenylyl cyclase cell-based assay, isoproterenol-stimulated cAMP; details: Rattus norvegicus; H9c2 cells, isoproterenol 5 mM
Protocol: (§5) H9c2(2-1) myoblast cell line was obtained from ATCC (CRL-1446). Cells (10^5 cells/mL) were seeded in 24-well plates at 5×10^4 cells per well. Cells were allowed to attach over 24 hours. The cells were then washed with PBS. Serum-free DMEM supplemented with 20 mM HEPES and 0.5 mM IBMX was added and the cells were incubated at 37 deg C. for 20 minutes. An Adenylyl Cyclase inhibitor (0.001-100 μM in DMSO/water with DMSO concentration <1%) was added and the mixture was incubated at 37 deg C. for 10 minutes. Forskolin (50 μM in DMSO/water with DMSO concentration <1%) was added and the mixture was incubated at 37 deg C. for 10 minutes. As an alternative to forskolin, isoproterenol (5 mM in DMSO/water with DMSO concentration <1%) was added and the mixture was incubated at 37 deg C. for 15 minutes. The media was removed and the cells were lysed by addition of 0.1 M hydrochloric acid (200 μL) 0 deg C. Lysed mixtures were maintained at 0 deg C. for 10-20 minutes and the plates were then centrifuged at 3,000×g for 5 minutes. cAMP levels in the supernatant were measured using the ThermoScientific cAMP competitive ELISA (EMSCAMPL) kit with samples acetylated in glass or polypropylene tubes.

[3] = test system: H9c2(2-1) myoblast cell line; assay: Adenylyl cyclase cell-based assay, forskolin-stimulated cAMP; details: Rattus norvegicus; H9c2 cells, forskolin 50 μM
Protocol: as §5

T2 sequence (O43306 whole entry): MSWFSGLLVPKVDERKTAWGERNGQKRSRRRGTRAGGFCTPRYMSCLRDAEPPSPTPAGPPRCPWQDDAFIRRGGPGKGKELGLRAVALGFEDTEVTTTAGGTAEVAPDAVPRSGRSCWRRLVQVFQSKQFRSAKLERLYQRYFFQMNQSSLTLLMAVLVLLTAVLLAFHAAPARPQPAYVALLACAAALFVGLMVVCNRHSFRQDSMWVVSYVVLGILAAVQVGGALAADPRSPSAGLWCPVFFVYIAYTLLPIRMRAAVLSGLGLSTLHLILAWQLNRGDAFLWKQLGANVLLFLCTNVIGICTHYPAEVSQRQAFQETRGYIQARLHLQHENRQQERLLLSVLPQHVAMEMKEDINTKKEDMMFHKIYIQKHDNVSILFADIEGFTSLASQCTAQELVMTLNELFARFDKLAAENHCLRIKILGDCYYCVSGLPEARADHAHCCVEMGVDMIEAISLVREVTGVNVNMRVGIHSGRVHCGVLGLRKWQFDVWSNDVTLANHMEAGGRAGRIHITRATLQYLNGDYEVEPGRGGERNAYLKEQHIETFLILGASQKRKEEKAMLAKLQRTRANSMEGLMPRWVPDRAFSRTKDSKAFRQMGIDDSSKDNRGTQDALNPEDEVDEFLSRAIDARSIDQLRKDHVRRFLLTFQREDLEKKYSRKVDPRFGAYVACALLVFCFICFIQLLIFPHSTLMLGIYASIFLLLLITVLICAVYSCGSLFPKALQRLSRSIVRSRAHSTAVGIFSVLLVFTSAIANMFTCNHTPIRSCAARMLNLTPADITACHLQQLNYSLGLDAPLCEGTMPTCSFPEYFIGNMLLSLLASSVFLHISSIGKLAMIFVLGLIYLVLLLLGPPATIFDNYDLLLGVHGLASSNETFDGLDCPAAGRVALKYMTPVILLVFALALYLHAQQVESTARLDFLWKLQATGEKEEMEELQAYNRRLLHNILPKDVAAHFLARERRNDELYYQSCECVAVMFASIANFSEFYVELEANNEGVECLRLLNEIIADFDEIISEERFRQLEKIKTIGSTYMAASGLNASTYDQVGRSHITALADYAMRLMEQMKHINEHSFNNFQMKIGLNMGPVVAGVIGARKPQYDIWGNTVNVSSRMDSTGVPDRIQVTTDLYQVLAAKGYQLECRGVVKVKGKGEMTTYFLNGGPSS
T1 sequence (O95622 whole entry): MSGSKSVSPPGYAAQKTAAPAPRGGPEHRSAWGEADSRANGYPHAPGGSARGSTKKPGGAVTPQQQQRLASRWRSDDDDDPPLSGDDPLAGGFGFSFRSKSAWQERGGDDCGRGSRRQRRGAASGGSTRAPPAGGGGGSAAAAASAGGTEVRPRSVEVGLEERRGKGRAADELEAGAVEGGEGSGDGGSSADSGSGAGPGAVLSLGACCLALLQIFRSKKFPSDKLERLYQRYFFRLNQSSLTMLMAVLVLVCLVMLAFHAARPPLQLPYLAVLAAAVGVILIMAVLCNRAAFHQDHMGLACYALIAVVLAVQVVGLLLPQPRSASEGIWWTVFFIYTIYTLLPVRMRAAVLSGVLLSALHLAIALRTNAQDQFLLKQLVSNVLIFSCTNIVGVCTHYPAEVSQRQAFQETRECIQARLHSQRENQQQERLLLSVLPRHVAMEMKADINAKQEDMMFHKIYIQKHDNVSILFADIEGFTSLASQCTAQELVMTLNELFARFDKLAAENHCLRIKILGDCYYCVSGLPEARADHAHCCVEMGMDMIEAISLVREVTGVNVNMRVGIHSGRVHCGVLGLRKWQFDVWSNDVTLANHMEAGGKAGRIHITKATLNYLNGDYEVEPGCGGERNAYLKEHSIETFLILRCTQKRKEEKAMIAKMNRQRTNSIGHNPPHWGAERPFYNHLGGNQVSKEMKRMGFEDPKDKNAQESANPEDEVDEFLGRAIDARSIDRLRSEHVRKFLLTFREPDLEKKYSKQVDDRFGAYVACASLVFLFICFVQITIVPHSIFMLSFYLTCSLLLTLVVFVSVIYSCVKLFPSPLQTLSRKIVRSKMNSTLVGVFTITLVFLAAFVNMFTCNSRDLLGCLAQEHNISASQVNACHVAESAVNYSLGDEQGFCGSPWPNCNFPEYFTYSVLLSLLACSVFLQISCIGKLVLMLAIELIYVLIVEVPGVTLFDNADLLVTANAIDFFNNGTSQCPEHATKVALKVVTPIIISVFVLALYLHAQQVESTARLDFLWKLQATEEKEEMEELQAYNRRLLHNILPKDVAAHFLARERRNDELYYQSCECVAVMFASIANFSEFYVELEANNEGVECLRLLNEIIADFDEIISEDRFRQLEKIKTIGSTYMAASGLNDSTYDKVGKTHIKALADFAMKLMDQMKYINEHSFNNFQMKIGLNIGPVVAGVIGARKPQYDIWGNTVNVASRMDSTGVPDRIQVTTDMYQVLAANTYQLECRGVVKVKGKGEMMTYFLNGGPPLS
T3 sequence (Q08462 whole entry): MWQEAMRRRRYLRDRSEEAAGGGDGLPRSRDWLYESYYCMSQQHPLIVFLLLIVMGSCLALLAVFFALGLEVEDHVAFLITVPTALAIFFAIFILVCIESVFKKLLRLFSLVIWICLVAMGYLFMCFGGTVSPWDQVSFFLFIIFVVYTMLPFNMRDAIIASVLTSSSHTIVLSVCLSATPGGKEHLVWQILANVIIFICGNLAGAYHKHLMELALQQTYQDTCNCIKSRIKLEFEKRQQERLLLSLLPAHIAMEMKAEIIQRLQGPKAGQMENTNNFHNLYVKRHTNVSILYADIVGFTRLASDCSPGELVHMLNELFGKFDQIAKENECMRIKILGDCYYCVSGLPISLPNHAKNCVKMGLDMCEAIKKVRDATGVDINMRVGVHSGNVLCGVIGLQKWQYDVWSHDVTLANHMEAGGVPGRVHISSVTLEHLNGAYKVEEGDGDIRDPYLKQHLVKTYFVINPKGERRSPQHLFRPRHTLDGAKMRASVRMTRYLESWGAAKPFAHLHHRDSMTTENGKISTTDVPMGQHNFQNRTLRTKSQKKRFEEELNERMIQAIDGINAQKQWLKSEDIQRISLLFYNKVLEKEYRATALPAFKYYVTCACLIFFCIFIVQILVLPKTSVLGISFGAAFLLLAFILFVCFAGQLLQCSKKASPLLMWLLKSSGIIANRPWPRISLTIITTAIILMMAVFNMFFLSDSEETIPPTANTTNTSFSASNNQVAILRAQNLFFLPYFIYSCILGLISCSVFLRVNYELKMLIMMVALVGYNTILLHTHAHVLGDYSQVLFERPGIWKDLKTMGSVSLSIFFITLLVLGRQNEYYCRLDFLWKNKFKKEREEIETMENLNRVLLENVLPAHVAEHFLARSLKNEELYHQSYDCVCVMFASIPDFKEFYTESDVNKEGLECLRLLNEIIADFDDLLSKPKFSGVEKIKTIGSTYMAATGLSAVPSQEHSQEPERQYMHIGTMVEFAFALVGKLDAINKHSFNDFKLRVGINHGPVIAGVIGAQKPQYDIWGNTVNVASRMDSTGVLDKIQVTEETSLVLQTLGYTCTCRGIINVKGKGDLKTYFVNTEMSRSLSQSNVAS

| Compound | IC50 (type V adenylyl cyclase) | also measured |
| --- | --- | --- |
| Nc1ncnc2c1ncn2[C@@H]1O[C@H](CO)[C@@H](O)[C@H]1O [adenosine, Adenosine, reference compound] | – | left ventricle (LV) infarct size [1]: 38% |
| C[C@H]1C[C@@H](n2cnc3c(N)ncnc32)C[C@@H]1C(=O)NO [Compound 10s, (1S,2S,4R)-4-(6-amino-9H-purin-9-yl)-N-hydroxy-2-methylcyclopentanecarboxamide] | 510 nM | – |
| Nc1ncnc2c1ccn2[C@@H]1CC[C@@H](C(=O)NO)C1 [Compound 10d, (1R,3R)-3-(4-amino-7H-pyrrolo[2,3-d]pyrimidin-7-yl)-N-hydroxycyclopentanecarboxamide] | 980 nM | – |
| Cc1nc2c(N)ncnc2n1[C@@H]1CC[C@@H](C(=O)NO)C1 [Compound 10o, (1R,3R)-3-(6-amino-8-methyl-9H-purin-9-yl)-N-hydroxycyclopentanecarboxamide] | > 300000 nM | – |
| Nc1nc(F)nc2c1ncn2[C@@H]1CC[C@@H](C(=O)NO)C1 [Compound 10j, (1R,3R)-3-(6-amino-2-fluoro-9H-purin-9-yl)-N-hydroxycyclopentanecarboxamide] | 80 nM | IC50 (type VI adenylyl cyclase): 210 nM; IC50 (type II adenylyl cyclase): 5580 nM; IC50 [2]: 2450 nM; IC50 [3]: 2320 nM |
| C[C@H]1C[C@@H](n2cnc3c(N)nc(F)nc32)C[C@@H]1C(=O)NO [Compound 10t] | 130 nM | – |
| Cc1nc(N)c2ncn([C@@H]3CC[C@@H](C(=O)NO)C3)c2n1 [Compound 10k, (1R,3R)-3-(6-amino-2-methyl-9H-purin-9-yl)-N-hydroxycyclopentanecarboxamide] | 4890 nM | – |
| Nc1ncnc2c1ncn2[C@@H]1C[C@H](CO)[C@@H](C(=O)O)C1 [Compound 10g, (1S,2S,4R)-4-(6-amino-9H-purin-9-yl)-2-(hydroxymethyl)cyclopentanecarboxylic acid] | > 100000 nM | – |
| Nc1nc(C(F)(F)F)nc2c1ncn2[C@@H]1CC[C@@H](C(=O)NO)C1 [Compound 10l, (1R,3R)-3-(6-amino-2-(trifluoromethyl)-9H-purin-9-yl)-N-hydroxycyclopentanecarboxamide] | 6450 nM | – |
| Nc1ncnc2c1ncn2[C@@H]1CC[C@@H](C(=O)NO)C1 [Compound 10, (1R,3R)-3-(6-amino-9H-purin-9-yl)-N-hydroxycyclopentanecarboxamide] | 150 nM | IC50 (type VI adenylyl cyclase): 250 nM; left ventricle (LV) infarct size [1]: 20%; IC50 [2]: 27000 nM; IC50 [3]: 9630 nM |
| Nc1ncnc2c1nc(C(F)(F)F)n2[C@@H]1CC[C@@H](C(=O)NO)C1 [Compound 10p, (1R,3R)-3-(6-amino-8-(trifluoromethyl)-9H-purin-9-yl)-N-hydroxycyclopentanecarboxamide] | > 300000 nM | – |
| Nc1nccc2c1ncn2[C@@H]1CC[C@@H](C(=O)O)C1 [Compound 10a, (1R,3R)-3-(4-amino-1H-imidazo[4,5-c]pyridin-1-yl)cyclopentanecarboxylic acid] | > 10000 nM | – |
| Nc1nc(O)nc2c1ncn2[C@@H]1CC[C@@H](C(=O)NO)C1 [Compound 10n, (1R,3R)-3-(6-amino-2-hydroxy-9H-purin-9-yl)-N-hydroxycyclopentanecarboxamide] | > 300000 nM | – |
| Nc1ncnc2c1ccn2[C@@H]1CC[C@@H](C(=O)O)C1 [Compound 10c, (1R,3R)-3-(4-amino-7H-pyrrolo[2,3-d]pyrimidin-7-yl)cyclopentanecarboxylic acid] | > 100000 nM | – |
| Nc1ncnc2c1nc(N)n2[C@@H]1CC[C@@H](C(=O)NO)C1 [Compound 10q, (1R,3R)-3-(6,8-diamino-9H-purin-9-yl)-N-hydroxycyclopentanecarboxamide] | > 300000 nM | – |
| Nc1nccc2c1ccn2[C@@H]1CC[C@@H](C(=O)O)C1 [Compound 10e, (1R,3R)-3-(4-amino-1H-pyrrolo[3,2-c]pyridin-1-yl)cyclopentanecarboxylic acid] | > 10000 nM | – |
| Nc1nc(F)cc2c1ncn2[C@@H]1CC[C@@H](C(=O)NO)C1 [Compound 10v, (1R,3R)-3-(4-amino-6-fluoro-1H-imidazo[4,5-c]pyridin-1-yl)-N-hydroxycyclopentanecarboxamide] | 30 nM | IC50 (type VI adenylyl cyclase): 30 nM; IC50 (type II adenylyl cyclase): 1110 nM; IC50 [2]: 1890 nM; IC50 [3]: 1140 nM |
| Nc1nccc2c1ncn2[C@@H]1CC[C@@H](C(=O)NO)C1 [Compound 10b, (1R,3R)-3-(4-amino-1H-imidazo[4,5-c]pyridin-1-yl)-N-hydroxycyclopentanecarboxamide] | 290 nM | IC50 [3]: 8500 nM |
| Nc1ncnc2c1nc(O)n2[C@@H]1CC[C@@H](C(=O)NO)C1 [Compound 10r, (1R,3R)-3-(6-amino-8-hydroxy-9H-purin-9-yl)-N-hydroxycyclopentanecarboxamide] | > 300000 nM | – |
| Nc1nc(N)c2ncn([C@@H]3CC[C@@H](C(=O)NO)C3)c2n1 [Compound 10m, (1R,3R)-3-(2,6-diamino-9H-purin-9-yl)-N-hydroxycyclopentanecarboxamide] | 3500 nM | – |
| Nc1ncnc2c1ncn2[C@@H]1C[C@@H](CO)[C@@H](C(=O)NO)C1 [Compound 10i, (1S,2R,4R)-4-(6-amino-9H-purin-9-yl)-N-hydroxy-2-(hydroxymethyl)cyclopentanecarboxamide] | 3100 nM | – |
| Nc1ncnc2c1ncn2[C@@H]1C[C@H](CO)[C@@H](C(=O)NO)C1 [Compound 10h, (1S,2S,4R)-4-(6-amino-9H-purin-9-yl)-N-hydroxy-2-(hydroxymethyl)cyclopentanecarboxamide] | 1900 nM | IC50 [3]: 18000 nM |

Reference: patent publication US10081633B2, “Adenylyl cyclase inhibitors, pharmaceutical compositions and method of use thereof” (priority 2016, dated 2018)
